Key:
human MRP4 = target: T1, human MRP4 (Homo sapiens, UniProt O15439); test: Inhibition of tracer uptake in MRP4-expressing vesicles; format: in vitro ADME; settings: MRP4, tracer [3H]E2G 10 µM
T1 construct: purchased GenoMembrane Co., Ltd. (Kanagawa, Japan); host or cells: Sf9
T1 sequence (O15439 1-1325): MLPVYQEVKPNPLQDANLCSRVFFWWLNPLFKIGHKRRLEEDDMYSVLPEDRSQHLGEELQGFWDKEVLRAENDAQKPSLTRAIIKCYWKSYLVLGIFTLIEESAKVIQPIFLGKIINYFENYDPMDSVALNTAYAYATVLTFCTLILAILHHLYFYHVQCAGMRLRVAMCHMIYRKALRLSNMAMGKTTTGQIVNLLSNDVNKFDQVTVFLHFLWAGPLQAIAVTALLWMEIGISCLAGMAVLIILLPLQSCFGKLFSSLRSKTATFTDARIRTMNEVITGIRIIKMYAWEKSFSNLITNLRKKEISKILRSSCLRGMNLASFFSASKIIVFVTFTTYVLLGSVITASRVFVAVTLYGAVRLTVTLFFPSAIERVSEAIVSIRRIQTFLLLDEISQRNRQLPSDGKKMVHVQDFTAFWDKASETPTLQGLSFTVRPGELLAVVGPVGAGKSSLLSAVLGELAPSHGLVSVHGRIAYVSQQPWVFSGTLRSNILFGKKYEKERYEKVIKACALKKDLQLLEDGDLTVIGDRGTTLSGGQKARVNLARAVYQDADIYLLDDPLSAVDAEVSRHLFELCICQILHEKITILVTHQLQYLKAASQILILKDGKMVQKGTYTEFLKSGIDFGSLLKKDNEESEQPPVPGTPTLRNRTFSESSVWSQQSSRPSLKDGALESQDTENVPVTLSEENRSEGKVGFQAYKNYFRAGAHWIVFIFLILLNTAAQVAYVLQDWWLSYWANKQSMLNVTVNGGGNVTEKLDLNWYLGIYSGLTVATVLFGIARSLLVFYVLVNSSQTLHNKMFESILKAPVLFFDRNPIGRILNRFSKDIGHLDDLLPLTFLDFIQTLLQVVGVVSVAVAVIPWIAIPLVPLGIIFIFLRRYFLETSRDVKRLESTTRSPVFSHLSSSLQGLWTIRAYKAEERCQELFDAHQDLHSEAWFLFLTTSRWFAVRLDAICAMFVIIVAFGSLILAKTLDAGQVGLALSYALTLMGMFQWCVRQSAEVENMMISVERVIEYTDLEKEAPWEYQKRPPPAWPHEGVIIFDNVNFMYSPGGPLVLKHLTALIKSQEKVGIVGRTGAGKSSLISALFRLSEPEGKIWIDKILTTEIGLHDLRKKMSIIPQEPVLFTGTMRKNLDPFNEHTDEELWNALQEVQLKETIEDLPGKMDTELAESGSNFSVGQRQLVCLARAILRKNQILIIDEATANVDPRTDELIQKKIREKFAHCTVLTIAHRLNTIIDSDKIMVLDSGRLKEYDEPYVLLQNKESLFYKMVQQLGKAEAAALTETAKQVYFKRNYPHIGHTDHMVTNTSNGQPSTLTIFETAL
Experimental: For ABC transporters, experimental kits containing Sf9-derived vesicles with high expression levels of human P-gp, MRP4, BCRP, and each ABC transporter (including buffer, ATP/AMP solution, and glutathione) were purchased from GenoMembrane Co., Ltd. (Kanagawa, Japan).
Vesicular transport assays were carried out according to the manufacturer’s protocol. […] The reaction was started by suspending 50 μg of vesicles (10 μL) in 40 μL of the reaction buffer. After incubation for an appropriate period of time, the reaction was stopped by the addition of ice-cold stop buffer (40 mM MOPS-Tris and 70 mM KCl; pH 7.0), after which the solution was filtered through a 0.45 μm HA filter (Millipore Corp., Billerica, MA, USA) using suction, and was washed twice in 5 mL of ice-cold stop buffer. The radioactivity of the filter was measured with a Tri-Carb 2910TR liquid scintillation counter (PerkinElmer) using Ultima Gold (PerkinElmer). The amount of tracer uptake was normalized to the membrane protein amount described in the product information sheets.

OCT2 = target: T2, OCT2 (Homo sapiens, UniProt O15244); test: [14C]fluciclovine uptake by OCT2-expressing cells; format: in vitro ADME; settings: OCT2 cells vs mock cells
T2 construct: host or cells: HEK293
T2 sequence (O15244 1-555): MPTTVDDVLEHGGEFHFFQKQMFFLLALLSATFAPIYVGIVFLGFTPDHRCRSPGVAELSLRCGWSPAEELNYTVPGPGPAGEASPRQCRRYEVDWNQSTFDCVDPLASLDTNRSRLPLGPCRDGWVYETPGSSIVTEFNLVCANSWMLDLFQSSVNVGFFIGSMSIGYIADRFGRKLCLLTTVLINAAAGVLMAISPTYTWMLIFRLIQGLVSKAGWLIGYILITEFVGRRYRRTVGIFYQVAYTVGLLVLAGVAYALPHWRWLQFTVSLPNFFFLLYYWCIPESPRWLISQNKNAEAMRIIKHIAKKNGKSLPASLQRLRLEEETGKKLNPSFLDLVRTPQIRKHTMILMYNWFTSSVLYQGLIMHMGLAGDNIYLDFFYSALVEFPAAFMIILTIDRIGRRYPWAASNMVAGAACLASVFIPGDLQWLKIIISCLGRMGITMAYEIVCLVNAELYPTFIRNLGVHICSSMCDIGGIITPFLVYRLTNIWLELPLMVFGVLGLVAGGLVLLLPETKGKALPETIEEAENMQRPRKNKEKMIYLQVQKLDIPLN

IC50 (human MRP4) [mM]	SMILES	drug transporter-mediated uptake (OCT2)
9.28 ± 1.9	N[C@]1(C(=O)O)C[C@@H](F)C1 [fluciclovine]	–
–	N[14C]1(C(=O)O)CC(F)C1 (stereo not drawn) [[^14C]fluciclovine, trans-1-amino-3-fluoro[1-^14C]cyclobutanecarboxylic acid]	negligible

Reference: paper PMC5085761 (International Journal of Molecular Sciences, 2016)
